Source: US20080188481A1 (priority 2002, published 2008)

test system: HIV-1 single-round infectious reporter virus; assay: Single-round infectious HIV-1 luciferase reporter virus infection of HeLa CD4 cells (antiviral EC50); type: cell-based; conditions: Human immunodeficiency virus 1, HeLa, 72 h, read-out: EC50 Group from Table 1
Description: • Virus production—Human embryonic Kidney cell line, 293T, was propagated in Dulbecco's Modified Eagle Medium (Invitrogen, Carlsbad, Calif.) containing 10% fetal Bovine serum (FBS, Sigma, St. Louis, Mo.). • Virus infection—Human epithelial cell line, HeLa, expressing the HIV-1 receptor CD4 was propagated in Dulbecco's Modified Eagle Medium (Invitrogen, Carlsbad, Calif.) containing 10% fetal Bovine serum (FBS, Sigma, St. Louis, Mo.) and supplemented with 0.2 mg/mL Geneticin (Invitrogen, Carlsbad, Calif.). Virus-Single-round infectious reporter virus was produced by co-transfecting human embryonic Kidney 293 cells with an HIV-1 envelope DNA expression vector and a proviral cDNA containing an envelope deletion mutation and the luciferase reporter gene inserted in place of HIV-1 nef sequences (Chen et al, Ref. 41). Transfections were performed using lipofectAMINE PLUS reagent as described by the manufacturer (Invitrogen, Carlsbad, Calif.).
• 1. HeLa CD4 cells were plated in 96 well plates at a cell density of 1×10^4 cells per well in 100 μl Dulbecco's Modified Eagle Medium containing 10% fetal Bovine serum and incubated overnight. • 2. Compound was added in a 2 μl dimethylsulfoxide solution, so that the final assay concentration would be ≦10 μM. • 3. 100 μl of single-round infectious reporter virus in Dulbecco's Modified Eagle Medium was then added to the plated cells and compound at an approximate multiplicity of infection (MOI) of 0.01, resulting in a final volume of 200 μl per well. • 4. Virally-infected cells were incubated at 37 degrees Celsius, in a CO2 incubator, and harvested 72 h after infection. • 5. Viral infection was monitored by measuring luciferase expression from viral DNA in the infected cells using a luciferase reporter gene assay kit, as described by the manufacturer (Roche Molecular Biochemicals, Indianapolis, Ind.). Infected cell supernatants were removed and 50 μl of lysis buffer was added per well. After 15 minutes, 50 μl of freshly-reconstituted luciferase assay reagent was added per well. Luciferase activity was then quantified by measuring luminescence using a Wallac microbeta scintillation counter. • 6. The percent inhibition for each compound was calculated by quantifying the level of luciferase expression in cells infected in the presence of each compound as a percentage of that observed for cells infected in the absence of compound and subtracting such a determined value from 100. • 7. An EC50 provides a method for comparing the antiviral potency of the compounds of this invention. The effective concentration for fifty percent inhibition (EC50) was calculated with the Microsoft Excel Xlfit curve fitting software. For each compound, curves were generated from percent inhibition calculated at 10 different concentrations by using a four paramenter logistic model (model 205). Table 1 is the key for the data in Table 2.

SMILES	EC50 [µM]
C#CC(=C1CCN(C(=O)C(=O)c2c[nH]c3c(OC)ncc(OC)c23)CC1)c1ccccc1 [Example 113, 1-[4-(1-Phenyl-1-ethynyl-methylene)-piperidin-1-yl]-2-(4,7-dimethoxy-6-azaindol-3-yl)-ethane-1,2-dione]	< 1
COc1cnc(-n2ccc(C)n2)c2[nH]cc(C(=O)C(=O)N3CCC(=C(c4ccccc4)c4cccc(F)c4)CC3)c12 [Example 98]	< 1
COc1ncc(OC)c2c(C(=O)C(=O)N3CCC(=C(c4ccccc4)c4ccc(F)cc4)CC3)c[nH]c12 [Example 64]	< 1
COc1cnc(-c2cnccn2)c2[nH]cc(C(=O)C(=O)N3CCC(=C(c4ccccc4)c4cccc(F)c4)CC3)c12 [Example 94]	< 1
N#CC(=C1CCN(C(=O)C(=O)c2c[nH]c3c(-c4cncc(N)n4)ccnc23)CC1)c1ccccc1 [Example 106, (1-{2-[7-(6-Amino-pyrazin-2-yl)-1H-pyrrolo[3,2-b]pyridin-3-yl]-2-oxo-acetyl}-piperidin-4-ylidene)-phenyl-acetonitrile]	< 1
COc1cnc(-n2ccnn2)c2[nH]cc(C(=O)C(=O)N3CCC(=C(c4ccccc4)c4nnc(C5CC5)o4)CC3)c12 [Example 76, 1-[4-(1-Phenyl-1-(5-cyclopropyl-1,3,4-oxadiazol-2-yl)-methylene)-piperidin-1-yl]-2-[4-methoxy-7-(1,2,3-triazol-1-yl)-6-azaindol-3-yl]-ethane-1,2-dione]	< 1
COc1ncc(OC)c2c(C(=O)C(=O)N3CCC(=C(c4ccccc4)c4ccco4)CC3)c[nH]c12 [Example 54]	< 1
COc1cnc(-n2ccc(C)n2)c2[nH]cc(C(=O)C(=O)N3CCC(=C(c4ccccc4)c4nnc(C)o4)CC3)c12 [Example 99]	< 1
COc1ncc(OC)c2c(C(=O)C(=O)N3CCC(=C(c4ccccc4)c4c(C)noc4C)CC3)c[nH]c12 [Example 60]	< 1
COc1cnc(-n2ccnn2)c2[nH]cc(C(=O)C(=O)N3CCC(=C(c4ccccc4)c4cnn(C)c4)CC3)c12 [Example 142, 1-[4-(1-Phenyl-1-(1-methylpyrazol-4-yl)-methylene)-piperidin-1-yl]-2-(4-methoxy-7-(1,2,3-triazol-1-yl)-6-azaindol-3-yl)-ethane-1,2-dione]	< 1
COc1cnc(Cl)c2[nH]cc(C(=O)C(=O)N3CCC(=C(C(N)=O)c4ccccc4)CC3)c12 [Example 48]	1 to 5
N#CC(=C1CCN(C(=O)C(=O)c2c[nH]c3c(-c4cnccn4)ccnc23)CC1)c1ccccc1 [Example 102, {1-[2-Oxo-2-(7-pyrazin-2-yl-1H-pyrrolo[3,2-b]pyridin-3-yl)-acetyl]-piperidin-4-ylidene}-phenyl-acetonitrile]	< 1
COc1cnc(-n2ccnn2)c2[nH]cc(C(=O)C(=O)N3CCC(=C(c4ccccc4)c4cccc(CO)c4)CC3)c12 [Example 78, 1-[4-(1-Phenyl-1-(3-hydroxymethylphenyl)-methylene)-piperidin-1-yl]-2-[4-methoxy-7-(1,2,3-triazol-1-yl)-6-azaindol-3-yl]-ethane-1,2-dione]	< 1
COc1cnc(-c2cnccn2)c2[nH]cc(C(=O)C(=O)N3CCC(=C(c4ccccc4)c4cnco4)CC3)c12 [Example 92]	< 1
COc1ncc(OC)c2c(C(=O)C(=O)N3CCC(=C(C#CC4CC4)c4ccccc4)CC3)c[nH]c12 [Example 115, 1-[4-(1-Phenyl-1-(2-cyclopropylethyn-1-yl)-methylene)-piperidin-1-yl]-2-(4,7-dimethoxy-6-azaindol-3-yl)-ethane-1,2-dione]	< 1
COc1cnc(-n2cnc(C)n2)c2[nH]cc(C(=O)C(=O)N3CCC(=C(c4ccccc4)c4cnn(C)c4)CC3)c12 [Example 141, 1-[4-(1-Phenyl-1-(1-methylpyrazol-4-yl)-methylene)-piperidin-1-yl]-2-(4-methoxy-7-(3-methyl-1,2,4-triazol-1-yl)-6-azaindol-3-yl)-ethane-1,2-dione]	< 1

SMILES	EC50 [µM]
COc1ncc(OC)c2c(C(=O)C(=O)N3CCC(=C(F)c4ccccc4)CC3)c[nH]c12 [Example 9]	< 1
COc1ncc(OC)c2c(C(=O)C(=O)N3CCC(=C(C#N)c4coc5ccccc45)CC3)c[nH]c12 [Example 127, 1-[4-(1-Cyano-1-benzofuran-3-yl-methylene)-piperidin-1-yl]-2-(4,7-dimethoxy-6-azaindol-3-yl)-ethane-1,2-dione]	< 1
COc1ncc(OC)c2c(C(=O)C(=O)N3CCC(=C(C#N)c4nnc(-c5ccccc5)o4)CC3)c[nH]c12 [Example 122, 1-[4-(1-Cyano-1-(5-phenyl-1,3,4-oxadiazol-2-yl)-methylene)-piperidin-1-yl]-2-(4,7-dimethoxy-6-azaindol-3-yl)-ethane-1,2-dione]	> 5
COc1cnc(-c2cc(C)n[nH]2)c2[nH]cc(C(=O)C(=O)N3CCC(=C(c4ccccc4)c4nnc(C)o4)CC3)c12 [Example 140, 1-[4-(1-Phenyl-1-(5-methyl-1,3,4-oxadiazol-2-yl)-methylene)-piperidin-1-yl]-2-(4-methoxy-7-(5-methylpyrazole-3-yl)-6-azaindol-3-yl)-ethane-1,2-dione]	< 1
COc1ncc(OC)c2c(C(=O)C(=O)N3CCC(=C(c4ccccc4)c4ccccn4)CC3)c[nH]c12 [Example 50, 1-[4-(1-Phenyl-1-(pyridin-2-yl)-methylene)-piperidin-1-yl]-2-(4,7-dimethoxy-6-azaindol-3-yl)-ethane-1,2-dione]	< 1
COc1ncc(OC)c2c(C(=O)C(=O)N3CCC(=C(c4ccccc4)c4cccc(F)c4)CC3)c[nH]c12 [Example 67]	< 1
COc1ncc(OC)c2c(C(=O)C(=O)N3CCC(=C(c4ccccc4)c4cc(C)cs4)CC3)c[nH]c12 [Example 55]	< 1
COc1ncc(OC)c2c(C(=O)C(=O)N3CCC(=C(C#N)c4csc5ccccc45)CC3)c[nH]c12 [Example 128, 1-[4-(1-Cyano-1-benzothien-3-yl-methylene)-piperidin-1-yl]-2-(4,7-dimethoxy-6-azaindol-3-yl)-ethane-1,2-dione]	< 1
COc1ccc(C(=C2CCN(C(=O)C(=O)c3c[nH]c4c(OC)ncc(OC)c34)CC2)c2ccccc2)cc1 [Example 62]	< 1
COc1ncc(OC)c2c(C(=O)C(=O)N3CCC(=C(C#CCO)c4ccccc4)CC3)c[nH]c12 [Example 116, 1-[4-(1-Phenyl-1-(2-hydroxymethylethyn-1-yl)-methylene)-piperidin-1-yl]-2-(4,7-dimethoxy-6-azaindol-3-yl)-ethane-1,2-dione]	< 1
COc1ncc(OC)c2c(C(=O)C(=O)N3CCC(=C(c4ccccc4)c4nnc(C(F)(F)F)o4)CC3)c[nH]c12 [Example 53, 1-[4-(1-Phenyl-1-(5-trifluoromethyl-1,3,4-oxadiazol-2-yl)-methylene)-piperidin-1-yl]-2-(4,7-dimethoxy-6-azaindol-3-yl)-ethane-1,2-dione]	< 1
COc1ncc(OC)c2c(C(=O)C(=O)N3CCC(=C(c4ccccc4)c4cnccn4)CC3)c[nH]c12 [Example 56]	< 1
N#CC(=C1CCN(C(=O)C(=O)c2c[nH]c3c(Cl)ccnc23)CC1)c1ccccc1 [Example 101, {1-[2-(7-Chloro-1H-pyrrolo[3,2-b]pyridin-3-yl)-2-oxo-acetyl]-piperidin-4-ylidene}-phenyl-acetonitrile]	< 1
COc1cnc(-n2cnc(C)n2)c2[nH]cc(C(=O)C(=O)N3CCC(=C(c4ccccc4)c4cncc(CO)c4)CC3)c12 [Example 120, 1-[4-(1-Phenyl-1-(5-hydroxymethylpyridin-3-yl)-methylene)-piperidin-1-yl]-2-[4-methoxy-7-(3-methyl-1,2,4-triazol-1-yl)-6-azaindol-3-yl]-ethane-1,2-dione]	< 1
COc1cnc(-n2cnc(C)n2)c2[nH]cc(C(=O)C(=O)N3CCC(=C(c4ccccc4)c4nnc(C5CCC5)o4)CC3)c12 [Example 133, 1-[4-(1-Phenyl-1-(5-cyclobutyl-1,3,4-oxadiazol-2-yl)-methylene)-piperidin-1-yl]-2-[4-methoxy-7-(3-methyl-1,2,4-triazol-1-yl)-6-azaindol-3-yl]-ethane-1,2-dione]	< 1
COc1cnc(-n2ccnn2)c2[nH]cc(C(=O)C(=O)N3CCC(=C(c4ccccc4)c4nnc(O)o4)CC3)c12 [Example 77, 1-[4-(1-Phenyl-1-(5-hydroxy-1,3,4-oxadiazol-2-yl)-methylene)-piperidin-1-yl]-2-[4-methoxy-7-(1,2,3-triazol-1-yl)-6-azaindol-3-yl]-ethane-1,2-dione]	< 1
